Molecules are shown by their SMILES.

The test addresses T1, human mGlu2 receptor (Homo sapiens, UniProt Q14416).
T1 construct: expressed in transfected cells; host or cells: CHO cells (membrane preparation)
In words: [35S]GTPγS binding assay (mGluR2 negative allosteric modulation). It is filed as biochemical. The note with it: for IC50: membranes from CHO cells transfected with human mGlu2 receptor, glutamate 60 μM, pIC50 = −log IC50 (M), read-out: GTPγS - hmGluR2 anGT pIC50 (converted); for Emax: relative maximal effect: maximal % inhibition relative to the control glutamate response, read-out: GTPγS - hmGluR2 anGT Emax. Here is the method:
1) [^35S]GTPγS binding assay
The [^35S]GTPγS binding assay is a functional membrane-based assay used to study G-protein coupled receptor (GPCR) function whereby incorporation of a non-hydrolysable form of GTP, [^35S]GTPγS (guanosine 5′-triphosphate, labelled with […] ^35S), is measured. The G-protein a subunit catalyzes the exchange of guanosine 5′-diphosphate (GDP) by guanosine triphosphate (GTP) and on activation of the GPCR by an agonist, [^35S]GTPγS, becomes incorporated and cannot be cleaved to continue the exchange cycle (Harper (1998) Current Protocols in Pharmacology 2.6.1-10, John Wiley & Sons, Inc.). […] Here we describe the use of the [^35S]GTPγS binding assay using membranes from cells transfected with the human mGlu2 receptor and adapted from Schaffhauser et al. (Molecular Pharmacology, 2003, […]) for the detection of the negative allosteric modulation (NAM) properties of the compounds of this invention.
CHO-cells were cultured to pre-confluence and stimulated with 5 mM butyrate for 24 h. Cells were then collected by scraping in PBS and cell suspension was centrifuged (10 min at 4000 RPM in benchtop centrifuge). Supernatant was discarded and pellet gently resuspended in 50 mM Tris-HCl, pH 7.4 by mixing with an Ultra Turrax homogenizer. The suspension was centrifuged at 12,400 RPM (Sorvall F14S-6x250Y) for 10 minutes and the supernatant discarded. The pellet was homogenized in 5 mM Tris-HCl, pH 7.4 using an Ultra Turrax homogenizer and centrifuged again (13,000 RPM, 20 min, 4° C.). The final pellet was resuspended in 50 mM Tris-HCl, pH 7.4 and stored at −80° C. in appropriate aliquots before use. Protein concentration was determined by the Bradford method (Bio-Rad, USA) with bovine serum albumin as standard.
Measurement of mGluR2 negative allosteric modulatory activity of test compounds was performed as follows. Test compounds and glutamate were diluted in assay buffer containing 10 mM HEPES acid, 10 mM HEPES salt, pH 7.4, 100 mM NaCl, 3 mM MgCl2 and 10 μM GDP. Human mGlu2 receptor-containing membranes were thawed on ice and diluted in assay buffer supplemented with 18 μg/ml saponin. […] After addition of [^35S]GTPγS (f.c. 0.1 nM), assay mixtures were shaken briefly and further incubated to allow [^35S]GTPγS incorporation on activation (30 minutes, 30° C.). Final assay mixtures contained 7 μg of membrane protein in 10 mM HEPES acid, 10 mM HEPES salt, pH 7.4, 100 mM NaCl, 3 mM MgCl2, 10 μM GDP and 10 μg/ml saponin. Total reaction volume was 200 μl. Reactions were terminated by rapid filtration through Unifilter-96 GF/B plates (Perkin Elmer, Massachusetts, USA) using a 96-well filtermate universal harvester. Filters were washed 6 times with ice-cold 10 mM NaH2PO4/10 mM Na2HPO4, pH 7.4. Filters were then air-dried, and 30 μl of liquid scintillation cocktail (Microscint-O) was added to each well. Membrane-bound radioactivity was counted in a Topcount.
The concentration-response curves of representative compounds of the present invention were generated using the Lexis software interface (developed at J&J). Data were calculated as % of the control glutamate response, defined as the response that is generated upon addition of an EC80-equivalent concentration of glutamate.
On the technique in general: Binding of GTPγS marks nucleotide exchange on a G protein.

T1 sequence (Q14416 19-872): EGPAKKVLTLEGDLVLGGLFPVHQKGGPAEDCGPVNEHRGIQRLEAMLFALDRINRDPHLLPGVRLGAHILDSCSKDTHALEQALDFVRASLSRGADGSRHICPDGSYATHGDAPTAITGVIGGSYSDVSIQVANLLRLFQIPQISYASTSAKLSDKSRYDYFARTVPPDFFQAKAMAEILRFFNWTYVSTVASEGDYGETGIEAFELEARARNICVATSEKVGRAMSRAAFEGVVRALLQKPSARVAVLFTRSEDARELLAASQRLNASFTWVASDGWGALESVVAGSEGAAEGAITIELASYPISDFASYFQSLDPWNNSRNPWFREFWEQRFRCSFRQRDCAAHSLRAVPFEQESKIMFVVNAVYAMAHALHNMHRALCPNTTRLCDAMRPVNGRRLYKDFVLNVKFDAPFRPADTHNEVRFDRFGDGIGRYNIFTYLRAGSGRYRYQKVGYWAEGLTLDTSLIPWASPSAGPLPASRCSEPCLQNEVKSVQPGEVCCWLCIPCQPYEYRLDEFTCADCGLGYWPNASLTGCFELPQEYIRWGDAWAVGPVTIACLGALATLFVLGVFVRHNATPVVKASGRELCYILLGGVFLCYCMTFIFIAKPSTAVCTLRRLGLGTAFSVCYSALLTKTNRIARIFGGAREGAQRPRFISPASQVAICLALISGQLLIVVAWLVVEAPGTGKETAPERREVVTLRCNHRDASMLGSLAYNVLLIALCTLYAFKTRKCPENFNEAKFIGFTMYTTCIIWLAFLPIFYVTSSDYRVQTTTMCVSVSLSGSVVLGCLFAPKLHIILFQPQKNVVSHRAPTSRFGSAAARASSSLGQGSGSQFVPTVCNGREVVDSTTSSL

Take `CCOc1cc(-c2cnn3c2C(=O)N(c2ccc(Cl)c(Cl)c2)C[C@@H]3C)ccn1` [compound 133]: the IC50 was 8.32e-09 M and the Emax was found to be 104%.
Taken in the same sequence, the figures for `CCc1cc(-c2cnn3c2C(=O)N(c2ccc(Cl)c(Cl)c2)C[C@@H]3C)ccn1` [compound 134] were 3.24e-09 M and 104%.
As to `CC(C)Oc1cc(-c2cnn3c2C(=O)N(c2ccc(Cl)c(Cl)c2)C[C@@H]3C)ccn1` [compound 137], the IC50 was 1.82e-08 M and the Emax turned out to be 107%.
Regarding `CC(C)Oc1cc(-c2cnn3c2C(=O)N(c2ccc(C(F)(F)F)cc2)C[C@@H]3C)ccn1` [compound 138], the IC50 was 6.76e-08 M and the Emax was determined as 105%.
With `Cc1cc(-c2cnn3c2C(=O)N(c2ccc(Br)cc2)C[C@@H]3C)ccn1` [compound 139], the IC50 is 3.63e-08 M and the Emax worked out at 106%.
Turning to `Cc1cc(-c2cnn3c2C(=O)N(c2ccc(C(C)(C)C)cc2)C[C@@H]3C)ccn1` [compound 141], the IC50 was 6.17e-08 M and the Emax stood at 102%.
With `Cc1cc(-c2cnn3c2C(=O)N(c2ccc(C(C)O)cc2)C[C@@H]3C)ccn1` (stereo partly drawn) [compound 149, (7S)-5-[4-(1-Hydroxyethyl)phenyl]-7-methyl-3-(2-methyl-4-pyridyl)-6,7-dihydropyrazolo[1,5-a]pyrazin-4-one], the IC50 is over 5.01e-05 M and the Emax worked out at 49%.
The like results for `Cc1cc(-c2cnn3c2C(=O)N(c2ccc(C(F)(F)F)c(OC(C)C)c2)C[C@@H]3C)ccn1` [compound 154] were, in that order, 2e-08 M and 104%.
Take `Cc1cc(-c2cnn3c2C(=O)N(c2ccc(C4CC4)cc2)C[C@@H]3C)ccn1` [compound 156, (7S)-5-(4-Cyclopropylphenyl)-7-methyl-3-(2-methyl-4-pyridyl)-6,7-dihydropyrazolo[1,5-a]pyrazin-4-one]: the IC50 is 5.62e-08 M and the Emax was 106%.
For the compound `COc1cc(Cl)ccc1N1C[C@H](C)n2ncc(-c3ccnc(C)c3)c2C1=O` [compound 161], the IC50 was 1.55e-05 M and the Emax stood at 76%.
`Cc1cc(-c2cnn3c2C(=O)N(c2ccc(Cl)c(OC(F)F)c2)C[C@@H]3C)ccn1` [compound 163]: the IC50 was 1.1e-08 M and the Emax turned out to be 103%.
On to `Cc1cc(-c2cnn3c2C(=O)N(c2ccc(OC(C)C(F)(F)F)cc2)C[C@@H]3C)ccn1` (stereo partly shown) [compound 165], for which the IC50 is 1.95e-08 M and the Emax is 102%.
With `Cc1cc(-c2cnn3c2C(=O)N(c2ccc(Cl)c(Cl)c2)C[C@@H]3C)cc[n+]1[O-]` [compound 170, (7S)-5-(3,4-dichlorophenyl)-7-methyl-3-(2-methyl-1-oxido-pyridin-1-ium-4-yl)-6,7-dihydropyrazolo[1,5-a]pyrazin-4-one], the IC50 was 7.24e-08 M and the Emax was 107%.
Regarding `C[C@H]1CN(c2ccc(C(F)(F)F)cc2)C(=O)c2c(-c3ccnc(C4CC4)c3)cnn21` [compound 173], the IC50 was 4.37e-09 M and the Emax is 106%.
With `C[C@H]1CN(c2ccc(C(F)(F)F)c(Cl)c2)C(=O)c2c(-c3ccnc(OCCF)c3)cnn21` [compound 177], the IC50 is 9.33e-09 M and the Emax worked out at 105%.
On to `CNc1cc(-c2cnn3c2C(=O)N(c2ccc(Cl)cc2)C[C@@H]3C)ccn1` [compound 178], for which the IC50 is 2.4e-08 M and the Emax stood at 107%.
The like results for `CNc1cc(-c2cnn3c2C(=O)N(c2ccc(C(F)(F)F)c(C#N)c2)C[C@@H]3C)ccn1` [compound 179] were, in that order, 3.63e-08 M and 103%.
Take `Cc1cc(-c2cnn3c2C(=O)N(c2ccc(C(F)(F)F)cc2)CC3C(F)F)ccn1` (stereo not shown) [compound 181, 7-(Difluoromethyl)-3-(2-methyl-4-pyridyl)-5-[4-(trifluoromethyl)phenyl]-6,7-dihydropyrazolo[1,5-a]pyrazin-4-one]: the IC50 was 4.17e-07 M and the Emax was 103%.
For the compound `Cc1cc(-c2cnn3c2C(=O)N(c2ccc(Cl)cn2)C[C@@H]3C)ccn1` [compound 187], the IC50 was 3.24e-07 M and the Emax was found to be 108%.
As for `C[C@H]1CN(c2ccc(C(F)(F)F)cn2)C(=O)c2c(-c3ccncc3)cnn21` [compound 190], the IC50 is 2.09e-07 M and the Emax came out at 105%.
The like results for `Cc1cc(-c2cnn3c2C(=O)N(c2ccc(C(F)(F)F)c(C)n2)C[C@@H]3C)ccn1` [compound 192, (7S)-7-Methyl-3-(2-methyl-4-pyridyl)-5-[6-methyl-5-(trifluoromethyl)-2-pyridyl]-6,7-dihydropyrazolo[1,5-a]pyrazin-4-one] were, in that order, 7.41e-09 M and 106%.
Taken in the same sequence, the figures for `Cc1cc(-c2cnn3c2C(=O)N(c2cc(C)c(C(F)(F)F)cn2)C[C@@H]3C)ccn1` [compound 193] were 1.91e-08 M and 103%.
Taken in the same sequence, the figures for `Cc1cc(-c2cnn3c2C(=O)N(c2ccc(C(F)(F)F)cn2)C[C@@H]3C)cc(C)n1` [compound 194] were 1.38e-07 M and 107%.
With `CCOc1ccc(Cl)c(N2C[C@H](C)n3ncc(-c4ccnc(C)c4)c3C2=O)n1` [compound 195], the IC50 was 4.07e-06 M and the Emax came out at 92%.
Regarding `Cc1cc(-c2cnn3c2C(=O)N(c2ccc(Cl)c(C)n2)C[C@@H]3C)ccn1` [compound 196], the IC50 was 5.01e-08 M and the Emax is 107%.
The like results for `Cc1cc(-c2cnn3c2C(=O)N(c2cc(Cl)c(C)cn2)C[C@@H]3C)ccn1` [compound 198] were, in that order, 9.12e-08 M and 104%.
`CCOc1ccc(C(F)(F)F)c(N2C[C@H](C)n3ncc(-c4ccnc(C)c4)c3C2=O)n1` [compound 199]: the IC50 is 2.57e-05 M and the Emax stood at 67%.
As to `Cc1cc(-c2cnn3c2C(=O)N(c2ccc(Cl)c(Cl)n2)C[C@@H]3C)ccn1` [compound 202], the IC50 was 1.02e-08 M and the Emax came to 103%.
Regarding `Cc1cc(-c2cnn3c2C(=O)N(c2cc(Cl)c(Cl)cn2)C[C@@H]3C)ccn1` [compound 203], the IC50 was 6.76e-09 M and the Emax was determined as 105%.
Taken in the same sequence, the figures for `COc1nc(N2C[C@H](C)n3ncc(-c4ccnc(C)c4)c3C2=O)ccc1Cl` [compound 206] were 1.78e-08 M and 111%.
The like results for `COc1nc(N2C[C@H](C)n3ncc(-c4ccnc(N5CCC5)c4)c3C2=O)ccc1C(F)(F)F` [compound 209] were, in that order, 6.46e-09 M and 104%.
The like results for `Cc1cc(-c2cnn3c2C(=O)N(c2ccc(C(F)(F)F)cn2)CC3)ccn1` [compound 211] were, in that order, 3.72e-06 M and 92%.
Regarding `Cc1cc(-c2cnn3c2C(=O)N(c2ccc(C(F)(F)F)cc2)CC3C(F)(F)F)ccn1` (stereo not shown) [compound 238, 3-(2-Methyl-4-pyridyl)-7-(trifluoromethyl)-5-[4-(trifluoromethyl)phenyl]-6,7-dihydropyrazolo[1,5-a]pyrazin-4-one], the IC50 is 2.14e-06 M and the Emax was determined as 103%.
The like results for `CNc1cc(-c2cnn3c2C(=O)N(c2ccc(C(F)(F)F)cc2)C[C@@H]3C)cc(C)n1` [compound 241] were, in that order, 1.82e-08 M and 109%.
In the case of `CNc1cc(-c2cnn3c2C(=O)N(c2ccc(C(F)(F)F)cc2)C[C@@H]3C)cc(F)n1` [compound 243], the IC50 was 2.24e-08 M and the Emax came to 116%.

The term Emax denotes the greatest response seen or fitted, relative to the assay's reference.

For the origin of these results see patent US10106542B2, “Substituted 6,7-dihydropyrazolo[1,5-a]pyrazines as negative allosteric modulators of mGluR2 receptors” (Janssen Pharmaceutica NV, priority 2013, dated 2018).
